From patent publication US20250114430A1, “MODIFIED PEPTIDOMIMETICS AND METHODS OF USE” (The University of North Carolina at Chapel Hill, priority 2021, published 2025)
No end group written: not given here.

How the values were obtained:
Orai1 [1] = molecular target: T1, Orai1 (Homo sapiens, UniProt Q96D31); experiment: Thapsigargin / Ca^2+ add back assay in HEK293T cells with anti-Orai1 shRNA; format: cell-based; design: Endogenous Orai1/store operated Ca^2+ influx have been extensively studied in HEK293T cells; endogenous in cells; host or cells: HEK293T
Experimental: HEK293T cells were transfected with anti-Orai1 shRNA for 48 h and the change in Fluo4 fluorescence was measured. Cells were then exposed to vehicle or […] ELD607 for 1 h. Thapsigargin was then added followed by extracellular Ca^2+ to differentiate ER Ca^2+ release and SOCE. n=8 cultures per condition.
(§1) ELD607 requires Orai1 expression to inhibit Ca^2+ signaling. […] Using this approach, curves were fitted to the data and the 50% inhibitory concentrations (IC50S) were calculated.

Orai1 [2] = molecular target: T1, Orai1; experiment: Dose response of Ca^2+ influx (SOCE), Ca^2+ add back approach, HEK293T cells; format: cell-based; design: Endogenous Orai1/store operated Ca^2+ influx have been extensively studied in HEK293T cells; endogenous in cells; host or cells: HEK293T
Experimental: HEK293T cells were cultured in 384 well plates. Cells were then exposed to vehicle or […] ELD607 for 1 h. 100 nM thapsigargin was then added followed by extracellular Ca^2+ to differentiate ER Ca^2+ release and SOCE. n=8-12 cultures per data point.
as §1

[3] = Lung retention and blood exposure after intratracheal dosing in mice; details: mouse, in vivo
Experimental: FIG. 30 panels B and C show % ELD607 recovered in BAL (FIG. 30 panel B) and blood (FIG. 30 panel C).
ELD607 is retained in the lung lumen. ELD607-TAMRA or vehicle (saline) was administered to mice intratracheally (0.5 mM, 1 h). Lungs were isolated, fixed, clarified and imaged using light-sheet fluorescence microscopy. […] We then dosed mice with 10 mg/kg ELD607 and collected BAL and blood. ELD607 levels declined over time in the BAL and plateaued with ˜10% of the initial dose detected after 2 h (FIG. 30, panel B).

P. aeruginosa = P. aeruginosa infection in WT mice, ELD607 versus comparators; format: in vivo; details: WT mice infected with P. aeruginosa
Text: We then infected WT mice with P. aeruginosa and treated with ELD607, the Orai1 small molecule antagonist […], dexamethasone or scrambled ELD607.

HEK293T cells [4] = experiment: Cytoplasmic Ca^2+ (Fluo-4) in HEK293T cells incubated with ELD peptides; format: cell-based; details: 2 hours with Fluo-4 plus or minus peptide
HEK293T cells [5] = experiment: Inhibition of Ca^2+ influx in HEK293T cells after pre-incubation of peptide in CF sputum; format: cell-based; details: peptide incubated 6 h in CF sputum, then HEK293T cells, thapsigargin
[6] = molecular target: T2, Orai1/store operated Ca^2+ influx (Homo sapiens, UniProt Q96D31); experiment: Store operated Ca^2+ influx in HEK293T cells (Example 2); format: cell-based; details: a6 and ELD607 combined
T2 construct: Endogenous Orai1/store operated Ca^2+ influx have been extensively studied in HEK293T cells; endogenous in cells; host or cells: HEK293T
Text: Endogenous Orai1/store operated Ca^2+ influx have been extensively studied in HEK293T cells, so this cell type was used to understand ELD607-Orai1 interactions. […] Thapsigargin is a SERCA pump inhibitor that prevents uptake of cytosolic Ca^2+ into the endoplasmic reticulum. Thapsigargin is commonly used to stimulate Orai1/store operated Ca^2+ influx. […] Dynamic light scattering (DLS) was used to evaluate binding of ELD607 to peptides of Orai1 extracellular loops. […] Thus, it was concluded that ELD607 interacts with Orai1.

P. aeruginosa POA1 = experiment: P. aeruginosa infection in Orai1 heterozygous mice and WT littermates; format: in vivo; details: 10^7 CFU/mouse, 0.5 mg/kg intranasal
Text: ELD607, but not global Orai1 inhibition or steroids beneficially reduce pulmonary inflammation after P. aeruginosa infection.

[7] = system: bleomycin-induced lung injury; experiment: Bleomycin-induced lung fibrosis in mice; format: in vivo; design: dose or concentration left out as unconfirmed
Experimental: Mice were exposed to 4 doses of bleomycin as described from days 1-37, then fibrosis was allowed to form from days 38-60. The mice were then dosed daily with inhaled […] (1 mg/kg) from days 61-82. Mice were sacrificed on Day 83 and histology was performed.
ELD607 reverses fibrosis in mice. Bleomycin-exposed mice are a well-established model to study IPF. Based on ATS guidelines, mice were dosed with […] bleomycin per dose 4 times over 37 days to induce fibrosis. From day 61, mice were then treated intranasally with […] ELD607 daily for 20 days (FIG. 40 panel A). Lungs were then collected and prepped for H&E staining and fibrosis was measured using the Ashcroft scaling system.

[8] = system: P. aeruginosa, Staphylococcus aureus, and Haemophilus influenzae; experiment: Murine bacterial infection models (three organisms); format: in vivo, mice
Experimental: Mice were dosed intranasally with P. aeruginosa (PA), S. aureus (Sa), or H. influenzae followed by vehicle (saline) or 0.5 mg/kg of ELD100 or ELD607 per mouse. FIG. 19 panels A, F, and K show total cell counts; FIG. 19 panels B, G, and L show BAL macrophages; FIG. 19 panels C, H, and M show BAL neutrophils; FIG. 19 panels D, I, and N show whole lung CFUs; and FIG. 19 panels E, J, and O show spleen CFUs. Top row, P. aeruginosa, middle row, S. aureus, bottom row, H. influenzae. * p<0.05 different from naïve mice; #p<0.05 different from infected mice.
ELD607 reduces neutrophilia and increases lung bacterial clearance in multiple murine bacterial infection models. Neutrophilia is a common feature of both Gram-positive and Gram-negative lung infections. Accordingly, further studies were performed with P. aeruginosa, Staphylococcus aureus, and Haemophilus influenzae (FIG. 19 panels B, C, G, H, L, and M). After infection with all three organisms, significant levels of bacteria were detected in the lung and spleen, and the infections increased total BAL cell numbers due to neutrophilia, while relative BAL macrophage numbers declined (FIG. 19 panels A-O). […] Moreover, 24 h after infection, about 10^9 CFUs could be detected in murine whole lung homogenate.

[9] = 0.5 mg/kg intranasal, 24 h after infection

T1 sequence (Q96D31 whole entry): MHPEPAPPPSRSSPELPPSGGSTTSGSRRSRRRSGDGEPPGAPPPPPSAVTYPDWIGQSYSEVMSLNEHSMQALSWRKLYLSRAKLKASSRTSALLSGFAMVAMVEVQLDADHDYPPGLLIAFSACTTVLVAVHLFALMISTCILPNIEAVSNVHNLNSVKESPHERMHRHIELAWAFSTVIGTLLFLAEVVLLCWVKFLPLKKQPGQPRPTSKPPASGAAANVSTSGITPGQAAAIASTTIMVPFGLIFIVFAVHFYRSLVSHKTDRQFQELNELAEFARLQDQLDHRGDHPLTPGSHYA
T2 sequence (Q96D31 whole entry): as above

**Q.** Which “thapsigargin-stimulated Ca^2+ release from the ER” value (Orai1 [1]; absence of extracellular Ca^2+) does the source give for VHDIVNMLIRG [ELD607, VHDIVNMLIRG] here?
**A.** Its value is “had no effect on this component”.

**Q.** And the “effect on Ca^2+ homeostasis after shRNA knockdown of Orai1” value (Orai1 [1]; anti-Orai1 shRNA 48 h)?
**A.** Its value is “no longer able to affect Ca^2+ homeostasis”.

**Q.** What about the “Ca^2+ influx” value (Orai1 [1]; extracellular Ca^2+ added back) of the same sequence?
**A.** Its value is “reduced Ca^2+ influx”.

**Q.** And the IC50 (Orai1 [2]; Ca^2+ influx, HEK293T, 100 nM thapsigargin, read-out: IC50 (Molar))?
**A.** Its IC50 is 81 nM.

**Q.** And the “Bottom (%)” value (Orai1 [2]; fitted curve bottom, text: maximal inhibitions)?
**A.** The value was 37.76%.

**Q.** What about the “% of the initial dose detected in BAL” value [3] of the same sequence?
**A.** The value was roughly 10%.

**Q.** And the “% of the original dose detected in the blood” value [3]?
**A.** The value was “less than 0.3%”.

**Q.** And the bacterial infections (P. aeruginosa)?
**A.** The bacterial infections was “significantly reduced”.

**Q.** What about the lung macrophage levels (P. aeruginosa) of the same sequence?
**A.** The lung macrophage levels was “increased lung macrophage levels”.

**Q.** What about the neutrophilia (P. aeruginosa) of the same sequence?
**A.** The neutrophilia was “significantly reduced”.

**Q.** What about the weight loss (P. aeruginosa) of the same sequence?
**A.** Its weight loss is “significantly reduced”.

**Q.** What about the “cytoplasmic calcium levels as compared to a control scrambled peptide” value (HEK293T cells [4]) of the same sequence?
**A.** Its value is “reduced cytoplasmic calcium levels”.

**Q.** And the “inhibition of Ca^2+ influx after pre-exposure to CF sputum” value (HEK293T cells [5])?
**A.** The value was “retained full functionality”.

**Q.** And the “additivity of inhibitory effects of a6 and ELD607 on thapsigargin-induced elevations in cytosolic Ca^2+” value [6]?
**A.** The value was “not additive”.

**Q.** What about the “leukocyte levels in WT littermate controls” value (P. aeruginosa POA1) of the same sequence?
**A.** The value was “normalized leukocytes similar to naïve mice”.

**Q.** And the “lung damage (Ashcroft)” value ([7]; 25 intranasally daily for 20 days from day 61)?
**A.** The value was “significantly less lung damage than vehicle controls”.

**Q.** What about the “acute and chronic bleomycin-induced lung injury” value ([7]; lower dose of 19, different time course) of the same sequence?
**A.** The value was “reduces acute and chronic bleomycin-induced lung injury”.

**Q.** What about the lung macrophage levels [8, 9] of the same sequence?
**A.** The lung macrophage levels was “significantly normalized lung macrophage levels”.

**Q.** What about the neutrophilia [8, 9] of the same sequence?
**A.** The neutrophilia was “reduced neutrophilia”.

**Q.** What about the “reduction in lung bacteria” value ([8]; FIG. 19 panels D and I) of the same sequence?
**A.** Its value is 3-5 log10.

**Q.** What about the “sepsis (spleen CFUs)” value ([8]; FIG. 19 panels E and J) of the same sequence?
**A.** The value was “significantly reduced sepsis”.

**Q.** And the overall outcomes ([8]; all three infections)?
**A.** The overall outcomes was “significantly improved outcomes”.
